pKm data for 39 compounds are collected here from ChEMBL document CHEMBL1157682, “In silico prediction of human carboxylesterase-1 (hCES1) metabolism combining docking analyses and MD simulations” (Bioorg Med Chem, 2010).

Structures are written as SMILES. Values joined by “and” are separate entries in the source; they are usually repeats but may differ in a detail not shown here. Identical values can stand only once.

The target in this data set is T1, Liver carboxylesterase 1 (Homo sapiens, UniProt P23141).
T1 sequence (P23141 whole entry): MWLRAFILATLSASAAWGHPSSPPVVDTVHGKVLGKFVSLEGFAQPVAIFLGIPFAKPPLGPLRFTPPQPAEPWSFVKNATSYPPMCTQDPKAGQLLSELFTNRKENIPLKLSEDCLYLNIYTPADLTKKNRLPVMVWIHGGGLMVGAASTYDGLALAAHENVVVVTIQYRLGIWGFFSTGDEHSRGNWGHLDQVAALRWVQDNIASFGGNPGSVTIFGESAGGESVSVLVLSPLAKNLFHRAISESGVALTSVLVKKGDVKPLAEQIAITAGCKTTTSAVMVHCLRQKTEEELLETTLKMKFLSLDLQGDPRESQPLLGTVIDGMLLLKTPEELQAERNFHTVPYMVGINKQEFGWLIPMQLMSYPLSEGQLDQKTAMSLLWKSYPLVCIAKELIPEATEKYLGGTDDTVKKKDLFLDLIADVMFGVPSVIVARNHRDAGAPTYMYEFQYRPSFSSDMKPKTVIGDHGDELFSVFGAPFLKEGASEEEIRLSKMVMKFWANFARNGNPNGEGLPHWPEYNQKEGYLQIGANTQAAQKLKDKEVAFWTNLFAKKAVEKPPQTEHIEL
The experiment in a line: Activity at human recombinant CES1 expressed in baculovirus-infected Spodoptera frugiperda Sf21 cells assessed as substrate hydrolysis by fluorescence assay.

Consider `COc1ccc2cc([C@@H](C#N)OC(=O)[C@H]3[C@@H](C=C(Cl)Cl)C3(C)C)ccc2c1`, for which the pKm was 5.85.
`CC(=O)Oc1ccc([N+](=O)[O-])cc1` [4-NITROPHENYL ACETATE]: the pKm came out at 3.44.
As to `CN(C)C(=O)COC(=O)Cc1ccc(OC(=O)c2ccc(NC(=N)N)cc2)cc1` [CAMOSTAT], the pKm is 3.15.
On to `COc1ccc2cc([C@H](C#N)OC(=O)[C@H]3[C@@H](C=C(Cl)Cl)C3(C)C)ccc2c1`, for which the pKm came out at 5.82.
For `COc1ccc2cc([C@H](C#N)OC(=O)[C@@H]3[C@@H](C=C(Cl)Cl)C3(C)C)ccc2c1`, the pKm is 5.77.
On to `COc1ccc2cc([C@@H](C#N)OC(=O)[C@@H]3[C@@H](C=C(Cl)Cl)C3(C)C)ccc2c1`, for which the pKm worked out at 6.15.
As for `CCOC(=O)C1(c2ccccc2)CCN(C)CC1` [MEPERIDINE], the figure is 2.72; as for `CC1(C)[C@@H](C=C(Cl)Cl)[C@@H]1C(=O)OCc1cccc(Oc2ccccc2)c1` (stereo in doubt), 5.01; as for `CCOC(=O)[C@H](CCc1ccccc1)N[C@@H](C)C(=O)N1C(=O)N(C)C[C@H]1C(=O)O`, 3.54.
For `CC(C)C[C@H](N)C(=O)OC[C@H]1O[C@@H](n2cc(F)c(=O)[nH]c2=O)C[C@@H]1O`, the pKm amounted to 3.01.
For `CCOC(=O)[C@H](CCc1ccccc1)N[C@H]1CCCN2CCC[C@@H](C(=O)O)N2C1=O` [CILAZAPRIL], the pKm came out at 2.89.
Regarding `COc1cc(C(=O)OCCCN2CCCN(CCCOC(=O)c3cc(OC)c(OC)c(OC)c3)CC2)cc(OC)c1OC` [DILAZEP], the pKm was found to be 3.81.
`CCOC(=O)[C@H](CCc1ccccc1)N[C@@H](C)C(=O)N(CC(=O)O)C1Cc2ccccc2C1`: the pKm is on record as 2.82.
With `CCOC(=O)[C@H](CCc1ccccc1)N[C@H]1CCc2ccccc2N(CC(=O)O)C1=O` [BENAZEPRIL], the pKm came to 3.13.
On to `CC(=O)Oc1ccc2c(C)cc(=O)oc2c1`, for which the pKm worked out at 3.1.
With `CCCCCOC(=O)Nc1nc(=O)n([C@@H]2O[C@H](C)[C@@H](O)[C@H]2O)cc1F` [CAPECITABINE], the pKm was 2.89.
With `CCOC(=O)C1=C[C@@H](OC(CC)CC)[C@H](NC(C)=O)[C@@H](N)C1` [OSELTAMIVIR], the pKm is 3.75.
`CC(=O)Oc1ccc2c3c1O[C@H]1[C@@H](OC(C)=O)C=C[C@H]4[C@@H](C2)N(C)CC[C@@]341` [DIACETYLMORPHINE]: the pKm came out at 2.2.
With `CC(C)[C@H](N)C(=O)OC[C@H]1O[C@@H](n2cc(F)c(=O)[nH]c2=O)C[C@@H]1O`, the pKm is recorded as 2.45.
`N[C@@H](CC(=O)O)C(=O)OC[C@H]1O[C@@H](n2cc(F)c(=O)[nH]c2=O)C[C@@H]1O`: the pKm is reported as 2.52.
As for `COc1ccc2cc(C(C#N)OC(=O)C3C(C)(C)C3(C)C)ccc2c1` (centres undefined), the figure is 5.82.
As to `COc1ccc2cc([C@H](C#N)OC(=O)[C@@H]3[C@H](C=C(Cl)Cl)C3(C)C)ccc2c1`, the pKm is reported as 6.52.
As for `COc1ccc2cc([C@H](C#N)OC(=O)[C@H]3[C@H](C=C(Cl)Cl)C3(C)C)ccc2c1`, the pKm worked out at 5.72.
Consider `COC(=O)[C@H](c1ccccc1)[C@H]1CCCCN1` [DEXMETHYLPHENIDATE], for which the pKm was determined as 4.36.
As for `COC(=O)[C@@H](c1ccccc1)[C@@H]1CCCCN1`, the figure is 4.05; as for `N[C@@H](Cc1ccccc1)C(=O)OC[C@H]1O[C@@H](n2cc(F)c(=O)[nH]c2=O)C[C@@H]1O`, 3.34; as for `CC1(C)[C@H](C(=O)OCc2cccc(Oc3ccccc3)c2)[C@@H]1C=C(Cl)Cl`, 4.62.
Regarding `CCOC(=O)[C@H](CCc1ccccc1)N[C@H]1CS[C@H](c2cccs2)CN(CC(=O)O)C1=O` [TEMOCAPRIL], the pKm stood at 3.1.
The same measure for `CCOC(=O)[C@H](CCc1ccccc1)N[C@@H](C)C(=O)N1Cc2ccccc2C[C@H]1C(=O)O`: 3.87; for `COC(=O)[C@H](c1ccccc1Cl)N1CCc2sccc2C1` [CLOPIDOGREL]: 4.25; for `CCc1c2c(nc3ccc(OC(=O)N4CCC(N5CCCCC5)CC4)cc13)-c1cc3c(c(=O)n1C2)COC(=O)[C@]3(O)CC` [IRINOTECAN]: 2.84.
`COc1ccc(C(=O)N2CCCC2=O)cc1`: the pKm is 4.07 and 4.02.
On to `COc1ccc2cc([C@@H](C#N)OC(=O)[C@H]3[C@H](C=C(Cl)Cl)C3(C)C)ccc2c1`, for which the pKm is listed as 5.62.
Consider `COC(=O)[C@H]1[C@@H](OC(=O)c2ccccc2)C[C@@H]2CC[C@H]1N2C` [COCAINE], for which the pKm is listed as 3.92.
As to `CC1(C)[C@H](C=C(Cl)Cl)[C@@H]1C(=O)OCc1cccc(Oc2ccccc2)c1`, the pKm stood at 4.62.
As for `CCCC(=O)Oc1ccc([N+](=O)[O-])cc1`, the pKm is recorded as 3.89.
The same measure for `CC(=O)O[C@H]1C=C[C@H]2[C@H]3Cc4ccc(O)c5c4[C@@]2(CCN3C)[C@H]1O5`: 2.08.
With `CC(C)=C[C@H]1[C@H](C(=O)OCc2coc(Cc3ccccc3)c2)C1(C)C` (relative stereo), the pKm came to 5.17.
For the compound `CC1(C)[C@H](C=C(Cl)Cl)[C@H]1C(=O)OCc1cccc(Oc2ccccc2)c1` (stereo in doubt), the pKm was 5.01.
